# US20240383856A1 (Zedira GmbH, priority 2021, published 2024)
# Read-outs that look alike come from different tables or passages of the source.
# Tests used:
# [1] = logD by shake flask method (octanol / PBS pH 7.4, HPLC); format: physicochemical; settings: octanol / PBS pH 7.4, shake flask
# Outline: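 Shake-flask partition of compound between octanol and phosphate-buffered saline at pH 7.4, with each phase quantified by HPLC to give LogD.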
# [2] = Caco-2 permeability assay (CacoReady kit); format: in vitro ADME; settings: human
# Outline: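 Papp values come from Caco-2 barrier studies intended to predict oral bioavailability; the manufacturer's procedure for the ready-made kit was followed.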
# [3] = target: T1, recombinant human transglutaminase 2 (Homo sapiens, UniProt P21980); experiment: Transglutaminase assay (DCC-assay): incorporation of dansylcadaverine into dimethylcasein; format: biochemical
# T1 construct: purchased Zedira T022
# T1 sequence (P21980 1-687): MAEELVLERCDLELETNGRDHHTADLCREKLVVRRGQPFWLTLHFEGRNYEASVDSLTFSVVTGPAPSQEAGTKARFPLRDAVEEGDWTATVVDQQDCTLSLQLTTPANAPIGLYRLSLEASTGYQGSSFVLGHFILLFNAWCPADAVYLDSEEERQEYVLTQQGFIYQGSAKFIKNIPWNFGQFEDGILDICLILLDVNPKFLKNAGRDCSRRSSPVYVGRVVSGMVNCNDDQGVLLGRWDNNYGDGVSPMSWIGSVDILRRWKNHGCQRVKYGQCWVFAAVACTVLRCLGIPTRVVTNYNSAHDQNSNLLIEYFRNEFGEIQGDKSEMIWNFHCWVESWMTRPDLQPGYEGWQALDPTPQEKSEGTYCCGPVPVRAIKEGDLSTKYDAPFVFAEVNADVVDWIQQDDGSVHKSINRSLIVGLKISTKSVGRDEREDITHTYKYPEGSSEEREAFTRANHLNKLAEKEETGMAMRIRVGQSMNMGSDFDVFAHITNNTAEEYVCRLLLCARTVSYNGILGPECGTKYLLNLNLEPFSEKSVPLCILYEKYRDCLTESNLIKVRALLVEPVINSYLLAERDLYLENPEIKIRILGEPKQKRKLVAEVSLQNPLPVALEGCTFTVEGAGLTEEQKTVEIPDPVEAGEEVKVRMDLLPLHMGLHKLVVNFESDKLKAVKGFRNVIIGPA
# Outline: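 Recombinant human TG2 (10 nM final) incorporates dansylcadaverine into N,N-dimethylcasein. Reaction mix: 50 mM Tris-HCl, 10 mM CaCl2, 10 mM glutathione, 2.5% glycerol, 16.7 µM dansylcadaverine, 4 µM dimethylcasein, 200 mM NaCl, pH 8.0. Fluorescence (ex 330/em 500 nm) was followed 30 min at 37 °C; the 20–30 min slope, expressed as % of 2% DMSO control, gave IC50.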
# [4] = Single-dose oral pharmacokinetic profile in mice; format: in vivo; settings: male C57BL/6 mice, single oral dose 200 mg/kg; for CL/F / MRT / half-life / AUC(0-t) / Cmax: mouse, plasma
# Method: Presumed from promising Papp values (permeability coefficients, see below), the 5 inventors had proven the oral bioavailability of the inhibitors of the present application by the representative compounds II-3, II-15, and II-28. For this selected set of representative compounds, pharmacokinetic profiles were determined in male C57BL/6 mice (N=3, each). Briefly, the compounds were administered as single-dose soluble, oral formulation [20 mg/ml in PBS/(2—Hydroxypropyl)-β-cyclodextrin formulation] at 200 mg/kg. Plasma samples were taken at (0, 0.25, 0.5, 1, 2, 4, and 6 hours) and analyzed by LC-MS to determine the concentration of the representative compounds.
# [5] = Caco-2, Caco-2, read-out: Papp [cm/s] ×10^−6
# [6] = Caco-2, Caco-2 barrier, CacoReady kit, above 1×10^−6 cm/s classified as permeable
# [7] = TG2, table with the PK study, read-out: IC50
# [8] = recombinant human TG2 10 nM, dansylcadaverine incorporation into dimethylcasein, read-out: IC50 TG2
Compound,logD [1],"Papp [2, 5] [×10⁻⁶ cm/s]","Papp [2, 6] [×10⁻⁶ cm/s]","IC90 ([3]; TG2, table with the PK study) [nM]","IC50 [3, 7] [nM]","IC50 [3, 8] [nM]",Kel [4] [h⁻¹],CL/F [4] [mL/min/kg],MRT [4] [h],half-life [4] [h],AUC(0-t) [4] [ng·h/mL],Cmax ([4]; read-out: Cmax) [µM],Cmax ([4]; read-out: Cmax [ng/ml]) [ng/mL]
"CNC(=O)C(=O)CC[C@H](NC(=O)c1cc(Cl)sc1Cl)C(=O)Nc1cccn(CC(=O)NC2C3CC4CC(C3)CC2C4)c1=O (stereo partly drawn) [II-28, (S)-2-(2,5-dichlorothiophene-3-carboxamido)-N1-(1-(2-(2-adamantylamino)-2-oxoethyl)-2-oxo-1,2-dihydropyridin-3-yl)-N6-methyl-5-oxohexanediamide]",1 to 3,7.4,1 to 10,240,24,< 40,0.6,247,1.6,1.1,14500,23.3,15100
"CNC(=O)C(=O)CC[C@H](NC(=O)c1sc(C(F)(F)F)nc1C)C(=O)Nc1cccn(CC(=O)NC2C3CC4CC(C3)CC2C4)c1=O (stereo partly drawn) [II-15, (S)-N1-(1-(2-(2-adamantylamino)-2-oxoethyl)-2-oxo-1,2-dihydropyridin-3-yl)-N6-methyl-2-(4-methyl-2-(trifluoromethyl)thiazole-5-carboxamido)-5-oxohexanediamide]",1 to 3,5.9,1 to 10,375,35,< 40,0.9,102,1.1,0.9,36900,48.6,32300
"CNC(=O)C(=O)CC[C@H](NC(=O)c1oc2ccccc2c1C)C(=O)Nc1cccn(CC(=O)N[C@@H]2C[C@H]3CC[C@]2(C)C3(C)C)c1=O [II-99, (S)-N1-methyl-5-(3-methylbenzofuran-2-carboxamido)-2-oxo-N6-(2-oxo-1-(2-oxo-2-((1R,2R,4R)-1,7,7-trimethylbicyclo[2.2.1]heptan-2-ylamino)ethyl)-1,2-dihydropyridin-3-yl)hexanediamide]",3 to 5,,1 to 10,,,40 to 400,,,,,,,
"O=C(Cn1cccc(NC(=O)[C@H](CCC(=O)C(=O)NC2CCCCC2)NC(=O)c2cc3ccccc3nn2)c1=O)NC12CC(C1)C2 [II-181, (S)-N1-(1-(2-(bicyclo[1.1.1]pentan-1-ylamino)-2-oxoethyl)-2-oxo-1,2-dihydropyridin-3-yl)-2-(cinnoline-3-carboxamido)-N6-cyclohexyl-5-oxohexanediamide]",1 to 3,,< 1,,,400 to 2500,,,,,,,
"CNC(=O)C(=O)CC[C@H](NC(=O)c1csc(Br)n1)C(=O)Nc1cccn(CC(=O)NC2C3CC4CC(C3)CC2C4)c1=O (stereo partly drawn) [II-35, (S)-2-(2-bromothiazole-4-carboxamido)-N1-(1-(2-(2-adamantylamino)-2-oxoethyl)-2-oxo-1,2-dihydropyridin-3-yl)-N6-methyl-5-oxohexanediamide]",1 to 3,,1 to 10,,,40 to 400,,,,,,,
"CNC(=O)C(=O)CC[C@H](NC(=O)c1nc(C2(C)CC2)no1)C(=O)Nc1cccn(CC(=O)NC2C3CC4CC2CC(C(N)=O)(C4)C3)c1=O (stereo partly drawn) [II-196, (S)-N1-(1-(2-(4-aminoadamantane-1-carboxamide)-2-oxoethyl)-2-oxo-1,2-dihydropyridin-3-yl)-N6-methyl-2-(3-(1-methylcyclopropyl)-1,2,4-oxadiazole-5-carboxamido)-5-oxohexanediamide]",< 1,,< 1,,,400 to 2500,,,,,,,
"CNC(=O)C(=O)CC[C@H](NC(=O)c1snnc1C1CC1)C(=O)Nc1cccn(CC(=O)NC2C3CC4CC(C3)CC2C4)c1=O (stereo partly drawn) [II-202, (S)-2-(4-cyclopropyl-1,2,3-thiadiazole-5-carboxamido)-N1-(1-(2-(2-adamantylamino)-2-oxoethyl)-2-oxo-1,2-dihydropyridin-3-yl)-N6-methyl-5-oxohexanediamide]",< 1,,< 1,,,40 to 400,,,,,,,
"CNC(=O)C(=O)CC[C@H](NC(=O)c1oc2ccccc2c1Cl)C(=O)Nc1cccn(CC(=O)NC2C3CC4CC(C3)CC2C4)c1=O (stereo partly drawn) [II-4, (S)-2-(3-chlorobenzofuran-2-carboxamido)-N1-(1-(2-(2-adamantylamino)-2-oxoethyl)-2-oxo-1,2-dihydropyridin-3-yl)-N6-methyl-5-oxohexanediamide]",1 to 3,,1 to 10,,,< 40,,,,,,,
"CC1(C)[C@@H]2CC[C@@]1(C)[C@@H](NC(=O)Cn1cccc(NC(=O)[C@H](CCC(=O)C(N)=O)NC(=O)c3cc4ccccc4o3)c1=O)C2 [II-150, (S)-2-(benzofuran-2-carboxamido)-5-oxo-N1-(2-oxo-1-(2-oxo-2-((1R,2S,4R)-1,7,7-trimethylbicyclo[2.2.1]heptan-2-ylamino)ethyl)-1,2-dihydropyridin-3-yl)hexanediamide]",1 to 3,,1 to 10,,,40 to 400,,,,,,,
"CNC(=O)C(=O)CC[C@H](NC(=O)c1cc2ccccc2o1)C(=O)Nc1cccn(CC(=O)NC2C3CC4CC(C3)CC2C4)c1=O (stereo partly drawn) [II-2, (S)-2-(benzofuran-2-carboxamido)-N1-(1-(2-(2-adamantylamino)-2-oxoethyl)-2-oxo-1,2-dihydropyridin-3-yl)-N6-methyl-5-oxohexanediamide]",1 to 3,,1 to 10,,,< 40,,,,,,,
"CNC(=O)C(=O)CC[C@H](NC(=O)c1oc2ccccc2c1C)C(=O)Nc1cccn(CC(=O)NC23CCC(CC2)C3)c1=O [II-95, (S)-N1-(1-(2-(bicyclo[2.2.1]heptan-1-ylamino)-2-oxoethyl)-2-oxo-1,2-dihydropyridin-3-yl)-N6-methyl-2-(3-methylbenzofuran-2-carboxamido)-5-oxohexanediamide]",1 to 3,,1 to 10,,,40 to 400,,,,,,,
